According to patent US20250186452A1, “NOVEL USE OF QUINOLINE COMPOUND” (TARAPEUTICS SCIENCE INC., priority 2022, published 2025):

How the values were obtained:
RAW264.7 cells [1] = assay: Cell transformation experiment: IL-10 secretion of M2-induced RAW264.7 cells (ELISA); type: cell-based, mouse
Experimental: (§1) RAW264.7 cells (purchased from ATCC, USA) were sucked up and down with a pipette, and the cells were added to a centrifuge tube, placed in a centrifuge, and centrifuged at 800 rpm for 4 minutes.

RAW264.7 cells [2] = assay: Cell transformation experiment: CD86 RNA level in M2-induced RAW264.7 cells (qPCR); type: cell-based, mouse
Experimental: as §1
In this experiment, an RNA extraction kit (purchased from Tiangen Biochemical Technology, China, catalog number: DP451) was used. RNA extraction was performed according to the instructions, and the concentration of RNA in the sample was detected using a NanoDrop nucleic acid concentration meter, and the RNA solution was diluted to the same concentration.
In this experiment, TakaRa One Step TB Green® PrimeScript™ PLUS RT-PCR Kit (purchased from TaKaRa Bio, catalog number: RR096A) was used, which contained the following components:
The procedure was as follows: • (1) The PCR primers were taken out and placed on ice. The primer sequences used were as follows: […]
• (3) After the RT-PCR reaction reagents were prepared, they were mixed, and the mixture was dispensed into 8-Strip Tubes. 2 μL of RNA sample was added to the tube, the bottom of the tube was gently tapped to mix the solution, and the tube was centrifuged in a centrifuge for a while. • (4) The fluorescence quantitative PCR instrument was turned on. […] Roche analysis software LightCycler® 96 SW 1.1 was used to analyze the data, and the analyzed data was imported into Graphpad Prism7.0 for drawing.

Compound: COc1cc2nccc(Oc3ccc(NC(=O)Cc4ccc(Cl)c(C(F)(F)F)c4)cc3)c2cc1OC [Example 2, N-(4-((6,7-dimethoxyquinolin-4-yl)oxy)phenyl)-2-(4-chloro-3-(trifluoromethyl)phenyl)-acetamide]
- effect on IL-10 secretion compared with positive controls (RAW264.7 cells [1]; 1 μM, same dose as PLX3397 and BLZ945, FIG. 1): better for Compound 2 at 1 μM than positive controls PLX3397 and BLZ945
- level of IL-10 secretion in M2 macrophages (RAW264.7 cells [1]; RAW264.7 induced with IL-4 or IL-13, treated 72 hours, serial dilutions, FIG. 1): decreased in a dose-dependent manner
- effect on CD86 RNA level compared with positive controls (RAW264.7 cells [2]; 1 μM, same dose as PLX3397 and BLZ945, FIG. 2): better for Compound 2 at 1 μM than positive controls PLX3397 and BLZ945
- RNA level of CD86 (RAW264.7 cells [2]; RAW264.7 induced to M2, treated 72 hours, serial dilutions, FIG. 2): increased in a dose-dependent manner
